The results in this text go back to US7932283B2, “Fungicide N-cyclopropyl-sulfonylamide derivatives” (Bayer Cropscience AG, priority 2006, dated 2011).

The nature of the first data set: logP by HPLC on reversed-phase column (C 18), EEC Directive 79/B31 Annex V.A8, methods A and B. The following applies: reversed-phase HPLC column (C 18), HPLC reversed-phase C 18, method B: 40° C., 0.1% aqueous formic acid and acetonitrile, linear gradient 10% to 90% acetonitrile. It counts as physicochemical. On the procedure: Calibration was carried out using unbranched alkan-2-ones (having 3 to 16 carbon atoms) with known logP values (determination of the logP values by the retention times using linear interpolation between two successive alkanones).
Consider `Cc1cc(O)cc(O)c1S(=O)(=O)N(C(=O)c1c(C(F)(F)F)nn(C)c1F)C1CC1` [Compound 367], for which the chromatographic logP amounted to 2.6. `Cn1nc(C(F)(F)F)c(C(=O)N(C2CC2)S(=O)(=O)c2ccc(F)cc2Br)c1F` [Compound 368] displayed a chromatographic logP of 3.2. Still for that read-out and setting: then `Cn1nc(C(F)(F)F)c(C(=O)N(C2CC2)S(=O)(=O)c2ccccc2I)c1F` [Compound 369], with 3; and `Cn1nc(C(F)(F)F)c(C(=O)N(C2CC2)S(=O)(=O)c2ccc(Oc3ccccc3)cc2)c1F` [Compound 370], with 3.9. Same read-out and setting: then `Cn1nc(C(F)(F)F)c(C(=O)N(C2CC2)S(=O)(=O)c2ccc(Oc3cccc(C#N)c3Cl)cc2)c1F` [Compound 371], with 3.7; and `Cn1nc(C(F)(F)F)c(C(=O)N(C2CC2)S(=O)(=O)c2ccc(Oc3ncc(C(F)(F)F)cc3O)cc2)c1F` [Compound 372], with 4.2; and `Cn1nc(C(F)(F)F)c(C(=O)N(C2CC2)S(=O)(=O)c2c(O)cc(C(F)(F)F)cc2O)c1F` [Compound 373], with 3.9.

In turn, `CCc1nn(C)c(F)c1C(=O)N(C1CC1)S(=O)(=O)c1cc(O)cc(O)c1` [Compound 376] registered a chromatographic logP of 3.9. In turn, `CCc1nn(C)c(F)c1C(=O)N(C1CC1)S(=O)(=O)c1ccc(O)c(O)c1` [Compound 378] returned a chromatographic logP of 3.8. This chromatographic logP and that of the compound before are within 0.2 log units of each other. On the same count and under the same terms, then `CCc1nn(C)c(F)c1C(=O)N(C1CC1)S(=O)(=O)c1c(O)cc(O)cc1O` [Compound 379], with 3.6; and `CCc1nn(C)c(F)c1C(=O)N(C1CC1)S(=O)(=O)c1c(C)nn(C)c1O` [Compound 382], with 2.3; and `CCCCc1ccc(S(=O)(=O)N(C(=O)c2c(CC)nn(C)c2F)C2CC2)cc1` [Compound 383], with 4.2. The same measure, in the same setting: then `CCc1nn(C)c(F)c1C(=O)N(C1CC1)S(=O)(=O)c1cc(C(F)(F)F)ccc1O` [Compound 384], with 3.5; and `CCc1nn(C)c(F)c1C(=O)N(C1CC1)S(=O)(=O)c1ccc(Br)cc1O` [Compound 385], with 3.4; and `CCc1nn(C)c(F)c1C(=O)N(C1CC1)S(=O)(=O)c1ccc(OC)c(OC)c1` [Compound 386], with 2.5. The same measure, in the same setting: under `CCc1nn(C)c(F)c1C(=O)N(C1CC1)S(=O)(=O)c1ccc(Oc2cccc(C(F)(F)F)c2)cc1` [Compound 388] stands 4.2; under `CCc1nn(C)c(F)c1C(=O)N(C1CC1)S(=O)(=O)c1ccc(Oc2ccc(C(F)(F)F)cc2)cc1` [Compound 389], 4.3. `CCc1nn(C)c(F)c1C(=O)N(C1CC1)S(=O)(=O)c1ccc(Oc2ccc(Br)cc2)cc1` [Compound 390] came in with a chromatographic logP of 4.4. For `CCc1nn(C)c(F)c1C(=O)N(C1CC1)S(=O)(=O)c1ccc(Oc2ccc(O)cc2)cc1` [Compound 391], the chromatographic logP is 4.2.

`COc1ccc(S(=O)(=O)N(C(=O)c2cn(C)nc2OC)C2CC2)cc1OC` [Compound 395] gave a chromatographic logP of 1.9.

Staying with this data set, now noted: reversed-phase HPLC column (C 18), LogP method A: HPLC reversed-phase C 18, 43° C., 0.1% aqueous phosphoric acid / acetonitrile, linear gradient 10% to 90% acetonitrile.
Turning to `Cc1nn(C)c(Oc2cccc(O)c2)c1C(=O)N(C1CC1)S(=O)(=O)c1cccc(O)c1` [Compound 399], the chromatographic logP came to 3.94. `Cc1nn(C)c(Oc2cccc(Cl)c2)c1C(=O)N(C1CC1)S(=O)(=O)c1ccc(C(F)(F)F)cc1` [Compound 400]: the chromatographic logP was 4.13. In the case of `Cc1n[nH]c(C)c1C(=O)N(C1CC1)S(=O)(=O)c1cccc(Cl)c1` [Compound 401], the chromatographic logP came out at 2.45. Same read-out and setting: then `Cc1n[nH]c(C)c1C(=O)N(C1CC1)S(=O)(=O)c1ccc(C(F)(F)F)cc1` [Compound 402], with 2.5; and `Cc1nn(C)c(C)c1C(=O)N(C1CC1)S(=O)(=O)c1ccc(C(F)(F)F)cc1` [Compound 403], with 3. Still for that read-out and setting: under `Cc1nn(C)c(Oc2cccc(Cl)c2)c1C(=O)N(C1CC1)S(=O)(=O)c1ccc(O)c(C(F)(F)F)c1` [Compound 404] stands 4.56; under `Cc1nn(C)c(Oc2cccc(O)c2)c1C(=O)N(C1CC1)S(=O)(=O)c1ccc(O)c(O)c1` [Compound 405], 4.46; under `Cc1nn(C)c(O)c1C(=O)N(C1CC1)S(=O)(=O)c1ccc(O)c(C(F)(F)F)c1` [Compound 406], 3.76. On the same count and under the same terms, under `Cc1nn(C)c(O)c1C(=O)N(C1CC1)S(=O)(=O)c1ccc(O)c(O)c1` [Compound 407] stands 3.63; under `Cc1n[nH]c(C)c1C(=O)N(C1CC1)S(=O)(=O)c1ccc(O)c(C(F)(F)F)c1` [Compound 408], 3. On to `Cc1n[nH]c(C)c1C(=O)N(C1CC1)S(=O)(=O)c1ccc(O)c(O)c1` [Compound 409], for which the chromatographic logP was found to be 2.74. Same read-out and setting: under `Cc1n[nH]c(C)c1C(=O)N(C1CC1)S(=O)(=O)c1ccc(C(C)(C)C)cc1` [Compound 410] stands 3.04. `Cc1nn(C)c(C)c1C(=O)N(C1CC1)S(=O)(=O)c1ccc(O)c(C(F)(F)F)c1` [Compound 411] had a chromatographic logP of 3.37. Turning to `Cc1nn(C)c(C)c1C(=O)N(C1CC1)S(=O)(=O)c1ccc(O)c(O)c1` [Compound 412], the chromatographic logP was 3.21.

Compound `Cc1nn(C)c(C)c1C(=O)N(C1CC1)S(=O)(=O)c1ccc(O)cc1O` [Compound 413] gave a chromatographic logP of 2.8.

The compound `Cc1nn(C)c(C)c1C(=O)N(C1CC1)S(=O)(=O)c1ccc(C(C)(C)C)cc1` [Compound 414] had a chromatographic logP of 3.41. Compound `COC(=O)c1csc(C)c1S(=O)(=O)N(C(=O)c1c(C)nn(C)c1F)C1CC1` [Compound 434] yielded a chromatographic logP of 2.24.

As to `Cc1nn(C)c(F)c1C(=O)N(C1CC1)S(=O)(=O)c1cnc(O)c(Br)c1` [Compound 447], the chromatographic logP came to 3.08.

Still in this data set, the particulars now being: reversed-phase HPLC column (C 18), LogP method B: HPLC reversed-phase C 18, 40° C., 0.1% aqueous formic acid / acetonitrile, linear gradient 10% to 90% acetonitrile.
On to `CCc1nn(C)c(F)c1C(=O)N(C1CC1)S(=O)(=O)c1c(O)sc(O)c1O` [Compound 437], for which the chromatographic logP came to 3.85.

For `COc1nn(C)cc1C(=O)N(C1CC1)S(=O)(=O)c1csc(O)c1O` [Compound 440], the chromatographic logP turned out to be 3.1. In the case of `Cc1nn(C)c(O)c1S(=O)(=O)N(C(=O)c1c(C(F)(F)F)nn(C)c1F)C1CC1` [Compound 443], the chromatographic logP was found to be 2.6. `COc1nn(C)cc1C(=O)N(C1CC1)S(=O)(=O)c1cnn(C)c1O` [Compound 444] registered a chromatographic logP of 1.7.

Regarding `COc1nn(C)cc1C(=O)N(C1CC1)S(=O)(=O)c1cnc(O)c(Br)c1` [Compound 449], the chromatographic logP amounted to 2. In turn, `COc1nn(C)cc1C(=O)N(C1CC1)S(=O)(=O)c1ccc(Oc2ccc(C)nc2)cc1Br` [Compound 458] registered a chromatographic logP of 2.

`COc1nn(C)cc1C(=O)N(C1CC1)S(=O)(=O)c1ccc(F)cc1Br` [Compound 459] displayed a chromatographic logP of 2.2. Same read-out and setting: under `COc1nn(C)cc1C(=O)N(C1CC1)S(=O)(=O)c1ccccc1C(F)(F)F` [Compound 460] stands 2.3; under `COc1nn(C)cc1C(=O)N(C1CC1)S(=O)(=O)c1c(O)cc(Cl)cc1O` [Compound 461], 2.7.

Compound `COc1ccc(Oc2ccc(S(=O)(=O)N(C(=O)c3cn(C)nc3OC)C3CC3)c(Br)c2)cc1OC` [Compound 462] yielded a chromatographic logP of 2.9.

As for `COc1ccc(Oc2ccc(S(=O)(=O)N(C(=O)c3cn(C)nc3OC)C3CC3)c(Br)c2)cc1` [Compound 463], the chromatographic logP was found to be 3.3. For the compound `COc1nn(C)cc1C(=O)N(C1CC1)S(=O)(=O)c1ccc(Oc2ccccc2)cc1Br` [Compound 464], the chromatographic logP was 3.3. Regarding `COc1nn(C)cc1C(=O)N(C1CC1)S(=O)(=O)c1ccc(Oc2ccccc2O)cc1Br` [Compound 465], the chromatographic logP came out at 3.5. The compound `COc1nn(C)cc1C(=O)N(C1CC1)S(=O)(=O)c1ccc(Oc2cccc(N(C)C)c2)cc1Br` [Compound 466] had a chromatographic logP of 3.5.

Consider `COc1nn(C)cc1C(=O)N(C1CC1)S(=O)(=O)c1ccc(Oc2ccc(C)cc2)cc1Br` [Compound 467], for which the chromatographic logP was 3.7. `COc1nn(C)cc1C(=O)N(C1CC1)S(=O)(=O)c1ccc(Oc2cccc(O)c2)cc1Br` [Compound 468] showed a chromatographic logP of 3.7. As to `COc1nn(C)cc1C(=O)N(C1CC1)S(=O)(=O)c1ccc(Oc2ccc(Cl)cc2)cc1Br` [Compound 469], the chromatographic logP came to 3.8. The chromatographic logP values of the last two compounds are within 0.2 log units of each other. On the same count and under the same terms, then `COc1nn(C)cc1C(=O)N(C1CC1)S(=O)(=O)c1ccc(Oc2ccc(C)c(O)c2)cc1Br` [Compound 470], with 3.8; and `COc1nn(C)cc1C(=O)N(C1CC1)S(=O)(=O)c1ccc(Oc2cccc(C(F)(F)F)c2F)cc1Br` [Compound 471], with 3.8. With `COc1nn(C)cc1C(=O)N(C1CC1)S(=O)(=O)c1ccc(Oc2cccc(C(F)(F)F)c2)cc1Br` [Compound 472], the chromatographic logP stood at 3.8. `COc1nn(C)cc1C(=O)N(C1CC1)S(=O)(=O)c1ccc(Oc2cccc(Br)c2)cc1Br` [Compound 473] came in with a chromatographic logP of 3.8. Same read-out and setting: under `COc1nn(C)cc1C(=O)N(C1CC1)S(=O)(=O)c1ccc(Oc2ccc(Br)cc2)cc1Br` [Compound 474] stands 3.9. Regarding `COc1nn(C)cc1C(=O)N(C1CC1)S(=O)(=O)c1ccc(Oc2ccc(C(F)(F)F)cc2)cc1Br` [Compound 475], the chromatographic logP came to 3.9. On the same count and under the same terms, then `COc1nn(C)cc1C(=O)N(C1CC1)S(=O)(=O)c1ccc(Oc2cccc(OC(F)(F)F)c2)cc1Br` [Compound 476], with 4; and `COc1nn(C)cc1C(=O)N(C1CC1)S(=O)(=O)c1ccc(Oc2ccc(O)cc2Cl)cc1Br` [Compound 477], with 4.1.

On to `COc1nn(C)cc1C(=O)N(C1CC1)S(=O)(=O)c1ccc(Oc2ccc(O)c(O)c2)cc1Br` [Compound 478], for which the chromatographic logP came to 4.2.
